Tests used:
[1] = Solubility testing in gas bubbler/sparger with continuous 9 mol % CO2 in N2; settings: 9 mol % CO2, ambient conditions
[2] = Preliminary solubility testing of CO2-loaded amino/amino-sulfonic acid solutions (precipitation temperature); format: physicochemical; settings: for solubility of CO2-loaded solution (in words): CO2 loaded 0.35-0.45 mol CO2/mol alk., lowest limit of apparatus −10° C.; for Precipitation Temperature: ambient pressure, test range −10° C. to 40° C.
Experimental: Preliminary solubility testing was carried out with various amino and amino-sulfonic acids and blends thereof to determine the propensity for solids precipitation. These blends were loaded with CO2 under representative process conditions: a CO2 loading from 0.35 to 0.45 mol CO2/mol alkalinity at ambient pressure and a temperature from −10° C. to 40° C. CO2 loading was achieved by addition of potassium bicarbonate instead of some potassium hydroxide as the neutralizing agent. The loading (in mol CO2 per mol alkalinity) was determined from the following equation: […]

[3] = Continuous test plant: membrane contactor CO2 absorption from exhaust and solvent regeneration in stripper; settings: for solids at ambient conditions (in words): atmospheric pressure and room temperature

Compound: CC(C)(N)C(=O)O [1 m AlBA, Amino isobutyric acid]
- precipitation when 9 mol % CO2 continuously injected (in words) [1]: did not precipitate

Compound: NCCCS(=O)(=O)O [3 m HTAU, homotaurine]
- precipitation when 9 mol % CO2 continuously injected (in words) [1]: did not precipitate

Compound: CN[C@@H](C)C(=O)O [3 m NMA, n-methyl-alanine]
- precipitation when 9 mol % CO2 continuously injected (in words) [1]: did not precipitate

Compound: NCCS(=O)(=O)O [3 m TAU, taurine]
- solubility of CO2-loaded solution (in words) [2]: soluble at process temperatures from 40 °C to 120° C., but potentially not soluble at room temperature
- Solid Observed ([3]; 210 kPa stripper pressure, 120° C. stripper temperature, 3.75 kg/min liquid, 9 mol % CO2, 25 SCFM): YES
- solids at ambient conditions (in words) ([3]; listed as 3 m potassium taurinate): solids are formed

Compound: NCCS(=O)(=O)O [5 m TAU, taurine]
- solids at ambient conditions (in words) ([3]; listed as 5 m taurine): solids are observed

Compound: NCCC(=O)O [5 m b-ALA, Beta-alanine]
- precipitation when 9 mol % CO2 continuously injected (in words) [1]: did not precipitate

Compound: NCCCS(=O)(=O)O [5 m homotaurine, homotaurine]
- solubility of CO2-loaded solution (in words) [2]: highly soluble with no precipitation
- Precipitation Temperature ([2]; Loading 0.35 mol CO2/mol alk.): <−10 °C
- Precipitation Temperature ([2]; Loading 0.40 mol CO2/mol alk.): <−10 °C
- Precipitation Temperature ([2]; Loading 0.45 mol CO2/mol alk.): <−10 °C

From patent US20250196055A1, “PROCESS FOR CAPTURING CO2 FROM A MOBILE SOURCE USING AN AMINO ACID SOLVENT” (SAUDI ARABIAN OIL COMPANY, priority 2021, published 2025)
